The NIST ThermoML archive (doi:10.1016/j.fluid.2017.06.024)
± gives the expanded uncertainty stated by the source.

Conditions: Liquid; for speed of sound: Frequency=3 MHz, Pulse-echo method; for mass density: Vibrating tube method

CC(C)OC(C)C [diisopropyl ether]
Conditions	mass density, 293.15 K [kg/m3]	mass density, 303.15 K [kg/m3]	mass density, 313.15 K [kg/m3]	mass density, 323.15 K [kg/m3]	mass density, 333.15 K [kg/m3]	speed of sound, 293.15 K [m/s]	speed of sound, 303.15 K [m/s]	speed of sound, 313.15 K [m/s]	speed of sound, 323.15 K [m/s]	speed of sound, 333.15 K [m/s]
100 kPa	723.5 ± 0.6	712.9 ± 0.6	702.2 ± 0.6	691.5 ± 0.6	680.6 ± 0.6	1019.7 ± 2.4	974.32 ± 2.3	930.24 ± 2.2	887.83 ± 2.1	847.29 ± 2
10000 kPa	734.6 ± 0.6	725.2 ± 0.6	715.5 ± 0.6	706 ± 0.6	696.3 ± 0.6	–	–	–	–	–
20000 kPa	744.5 ± 0.6	735.9 ± 0.6	726.9 ± 0.6	718 ± 0.6	709.3 ± 0.6	1161.2 ± 2.5	1122.6 ± 2.5	1086.8 ± 2.4	1051.9 ± 2.3	1017.8 ± 2.3
30000 kPa	753.3 ± 0.7	745.3 ± 0.7	736.9 ± 0.7	728.5 ± 0.7	720.5 ± 0.7	–	–	–	–	–
40000 kPa	761.3 ± 0.7	753.8 ± 0.7	745.7 ± 0.7	737.8 ± 0.7	730.3 ± 0.7	1274.5 ± 2.7	1240.4 ± 2.7	1207.9 ± 2.6	1177.1 ± 2.5	1146.8 ± 2.5
50000 kPa	768.6 ± 0.8	761.5 ± 0.8	753.8 ± 0.8	746.2 ± 0.8	739.1 ± 0.8	–	–	–	–	–
60000 kPa	775.4 ± 0.8	768.5 ± 0.8	761.1 ± 0.8	753.9 ± 0.8	747.1 ± 0.9	1369.3 ± 2.9	1337.6 ± 2.9	1308.1 ± 2.8	1279 ± 2.7	1252.4 ± 2.7
70000 kPa	781.7 ± 0.9	775.1 ± 0.9	768.1 ± 0.9	761 ± 0.9	754.5 ± 0.9	–	–	–	–	–
80000 kPa	787.6 ± 0.9	781.2 ± 0.9	774.3 ± 0.9	767.5 ± 0.9	761.4 ± 1	1454.2 ± 3.1	1423.4 ± 3	1396.7 ± 3	1368.7 ± 2.9	1343.2 ± 2.9
90000 kPa	793.2 ± 0.9	787 ± 1	780.3 ± 1	773.7 ± 1	767.8 ± 1	–	–	–	–	–
100000 kPa	798.5 ± 1	792.4 ± 1	786 ± 1	779.5 ± 1	–	1528.7 ± 3.2	1501.9 ± 3.2	1475 ± 3.1	1448.7 ± 3.1	–
110000 kPa	803.5 ± 1	797.6 ± 1.1	791.5 ± 1.1	785 ± 1.1	–	–	–	–	–	–
120000 kPa	808.4 ± 1.1	802.5 ± 1.1	796.4 ± 1.1	790.3 ± 1.1	–	–	–	–	–	–
130000 kPa	813 ± 1.1	807.3 ± 1.1	801.4 ± 1.2	795.2 ± 1.2	–	–	–	–	–	–
140000 kPa	817.4 ± 1.1	811.8 ± 1.2	805.9 ± 1.2	800 ± 1.2	–	–	–	–	–	–
